From ChEMBL document CHEMBL1201862, “PubChem BioAssay data set” (2004)
Calls of active or inactive are those of the source.

Key:
[1] = molecular target: T1, Sentrin-specific protease 8 (Homo sapiens, UniProt Q96LD8); assay type: functional;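 further: luminescence read-out of SENP8 inhibition, dose-response confirmation following an ultra-high-throughput screen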
T1 sequence (Q96LD8 whole entry): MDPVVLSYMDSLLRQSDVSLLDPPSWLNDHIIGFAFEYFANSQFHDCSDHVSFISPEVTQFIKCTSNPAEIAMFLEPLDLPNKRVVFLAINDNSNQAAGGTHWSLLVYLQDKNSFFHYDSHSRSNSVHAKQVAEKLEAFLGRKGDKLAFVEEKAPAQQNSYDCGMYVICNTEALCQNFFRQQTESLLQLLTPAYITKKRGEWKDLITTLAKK

[2] = molecular target: T2, Caspase-3 (Homo sapiens, UniProt P42574); assay type: functional;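 further: Dose-response selectivity test against caspase-3 for candidate inhibitors of sentrin-specific proteases (SENPs)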
T2 sequence (P42574 whole entry): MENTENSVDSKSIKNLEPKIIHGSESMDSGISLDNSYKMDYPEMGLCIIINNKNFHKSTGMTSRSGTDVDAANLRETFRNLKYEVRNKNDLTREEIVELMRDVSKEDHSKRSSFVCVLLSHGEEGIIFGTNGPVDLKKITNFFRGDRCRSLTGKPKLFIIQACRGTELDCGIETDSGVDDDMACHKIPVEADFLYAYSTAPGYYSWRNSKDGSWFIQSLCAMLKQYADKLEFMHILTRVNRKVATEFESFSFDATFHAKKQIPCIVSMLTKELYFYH

[3] = molecular target: T3, Sentrin-specific protease 7 (Homo sapiens, UniProt Q9BQF6); assay type: functional;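 further: Luminescence-based dose-response confirmation of ultra-high-throughput screening hits, measuring inhibition of SENP7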
T3 sequence (Q9BQF6 whole entry): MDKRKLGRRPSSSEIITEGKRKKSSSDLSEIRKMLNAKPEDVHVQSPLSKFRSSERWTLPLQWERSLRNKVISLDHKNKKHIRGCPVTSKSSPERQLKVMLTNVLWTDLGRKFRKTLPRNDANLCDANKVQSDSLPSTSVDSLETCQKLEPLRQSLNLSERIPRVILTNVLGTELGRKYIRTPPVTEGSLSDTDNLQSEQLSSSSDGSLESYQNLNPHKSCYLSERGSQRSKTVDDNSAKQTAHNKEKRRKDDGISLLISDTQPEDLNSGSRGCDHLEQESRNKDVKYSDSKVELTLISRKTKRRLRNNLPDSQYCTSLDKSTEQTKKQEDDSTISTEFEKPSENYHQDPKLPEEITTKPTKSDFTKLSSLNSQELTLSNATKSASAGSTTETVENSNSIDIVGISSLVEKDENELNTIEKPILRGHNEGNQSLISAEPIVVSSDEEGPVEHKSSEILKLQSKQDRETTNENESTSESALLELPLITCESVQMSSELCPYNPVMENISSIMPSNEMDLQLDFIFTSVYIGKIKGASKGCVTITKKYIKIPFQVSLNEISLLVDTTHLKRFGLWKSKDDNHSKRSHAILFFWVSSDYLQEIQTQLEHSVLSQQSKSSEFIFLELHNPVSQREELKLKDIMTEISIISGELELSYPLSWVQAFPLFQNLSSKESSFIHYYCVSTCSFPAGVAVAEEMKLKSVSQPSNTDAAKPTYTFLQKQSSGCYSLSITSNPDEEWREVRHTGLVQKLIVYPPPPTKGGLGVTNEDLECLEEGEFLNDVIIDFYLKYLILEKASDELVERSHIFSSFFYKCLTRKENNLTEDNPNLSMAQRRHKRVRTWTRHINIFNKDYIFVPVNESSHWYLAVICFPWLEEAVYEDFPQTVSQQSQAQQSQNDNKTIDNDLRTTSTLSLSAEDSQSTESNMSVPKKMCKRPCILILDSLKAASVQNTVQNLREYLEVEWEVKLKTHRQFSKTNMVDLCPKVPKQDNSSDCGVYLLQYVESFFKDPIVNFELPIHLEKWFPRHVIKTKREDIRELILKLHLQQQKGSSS

[4] = molecular target: T4, Sentrin-specific protease 6 (Homo sapiens, UniProt Q9GZR1); assay type: functional;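 further: Luminescence-based dose-response confirmatory assay of SENP6 inhibition, following up an ultra-high-throughput screen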
T4 sequence (Q9GZR1 whole entry): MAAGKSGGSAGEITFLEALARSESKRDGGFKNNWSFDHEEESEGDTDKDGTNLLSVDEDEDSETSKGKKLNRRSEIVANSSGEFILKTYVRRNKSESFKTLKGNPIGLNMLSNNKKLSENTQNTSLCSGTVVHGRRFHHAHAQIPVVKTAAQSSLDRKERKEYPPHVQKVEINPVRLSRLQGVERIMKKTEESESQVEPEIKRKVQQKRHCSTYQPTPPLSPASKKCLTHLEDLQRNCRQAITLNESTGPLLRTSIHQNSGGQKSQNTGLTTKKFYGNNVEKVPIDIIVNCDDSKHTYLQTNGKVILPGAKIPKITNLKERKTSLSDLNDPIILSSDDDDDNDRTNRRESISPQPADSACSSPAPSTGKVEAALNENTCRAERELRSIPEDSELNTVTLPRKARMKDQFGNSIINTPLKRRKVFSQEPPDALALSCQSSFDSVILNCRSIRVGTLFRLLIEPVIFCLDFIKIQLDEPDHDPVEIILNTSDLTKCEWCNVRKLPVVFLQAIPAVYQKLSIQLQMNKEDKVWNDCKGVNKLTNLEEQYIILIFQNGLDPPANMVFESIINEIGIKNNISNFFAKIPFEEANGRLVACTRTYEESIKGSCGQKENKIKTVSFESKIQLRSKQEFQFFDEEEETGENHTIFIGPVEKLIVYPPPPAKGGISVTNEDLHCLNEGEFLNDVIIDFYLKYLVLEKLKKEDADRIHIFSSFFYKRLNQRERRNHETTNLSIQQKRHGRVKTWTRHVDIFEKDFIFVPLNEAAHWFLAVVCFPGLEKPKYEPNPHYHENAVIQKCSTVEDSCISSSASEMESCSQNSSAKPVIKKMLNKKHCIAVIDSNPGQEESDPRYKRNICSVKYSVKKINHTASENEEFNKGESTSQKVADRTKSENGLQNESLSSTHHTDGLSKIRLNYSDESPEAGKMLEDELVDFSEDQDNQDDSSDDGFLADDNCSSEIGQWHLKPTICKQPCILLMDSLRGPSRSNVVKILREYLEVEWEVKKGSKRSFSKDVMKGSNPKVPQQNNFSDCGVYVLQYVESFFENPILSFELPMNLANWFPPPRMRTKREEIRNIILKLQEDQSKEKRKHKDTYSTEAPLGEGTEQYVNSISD

[5] = molecular target: T5, Long-chain-fatty-acid--AMP ligase FadD28 (Mycobacterium tuberculosis, UniProt P9WQ59); test: Fluorescence polarization aasay to screen for inhibitors that compete for the binding of FadD28 to a bisubstrate Measured in Biochemical System Using Plate Reader - 2147-01_Inhibitor_Dose_CherryPick_Activity.; assay type: functional, Mycobacterium tuberculosis H37Rv
T5 sequence (P9WQ59 whole entry): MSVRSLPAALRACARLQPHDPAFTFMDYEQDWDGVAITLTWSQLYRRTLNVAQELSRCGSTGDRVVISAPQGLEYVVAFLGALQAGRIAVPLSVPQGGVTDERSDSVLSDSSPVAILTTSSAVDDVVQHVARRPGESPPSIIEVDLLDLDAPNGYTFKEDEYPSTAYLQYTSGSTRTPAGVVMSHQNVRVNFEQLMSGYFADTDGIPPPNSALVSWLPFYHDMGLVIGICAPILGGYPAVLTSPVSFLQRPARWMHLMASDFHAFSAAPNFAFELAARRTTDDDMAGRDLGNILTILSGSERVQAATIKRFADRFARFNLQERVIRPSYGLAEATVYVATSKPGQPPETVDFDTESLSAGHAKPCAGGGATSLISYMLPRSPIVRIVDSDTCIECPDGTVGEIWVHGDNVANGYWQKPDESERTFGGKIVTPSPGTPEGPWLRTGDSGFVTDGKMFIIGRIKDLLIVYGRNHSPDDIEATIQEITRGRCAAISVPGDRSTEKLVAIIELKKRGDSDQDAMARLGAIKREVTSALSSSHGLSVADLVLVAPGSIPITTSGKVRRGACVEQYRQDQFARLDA

[6] = molecular target: T6, Corticotropin-releasing factor receptor 2/Corticotropin-releasing factor-binding protein (Homo sapiens, UniProt P24387+Q13324); test: activators of CRF receptor 2 with binding protein – uHTS hits, confirmation (AID 602473); assay type: functional; conditions: read-out: EC50_Mean
T6 sequence (Q13324 whole entry): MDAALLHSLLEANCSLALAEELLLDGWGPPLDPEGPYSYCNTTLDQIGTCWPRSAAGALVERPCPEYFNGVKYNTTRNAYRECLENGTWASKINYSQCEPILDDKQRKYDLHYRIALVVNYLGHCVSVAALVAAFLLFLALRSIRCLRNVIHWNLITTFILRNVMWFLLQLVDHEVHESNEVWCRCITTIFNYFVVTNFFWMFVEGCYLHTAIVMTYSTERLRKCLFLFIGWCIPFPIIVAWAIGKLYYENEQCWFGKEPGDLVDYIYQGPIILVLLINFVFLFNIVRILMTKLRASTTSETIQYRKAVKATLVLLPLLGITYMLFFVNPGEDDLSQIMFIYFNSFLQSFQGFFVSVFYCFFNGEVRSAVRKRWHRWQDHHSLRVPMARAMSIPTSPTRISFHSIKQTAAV
T6 sequence (P24387 whole entry): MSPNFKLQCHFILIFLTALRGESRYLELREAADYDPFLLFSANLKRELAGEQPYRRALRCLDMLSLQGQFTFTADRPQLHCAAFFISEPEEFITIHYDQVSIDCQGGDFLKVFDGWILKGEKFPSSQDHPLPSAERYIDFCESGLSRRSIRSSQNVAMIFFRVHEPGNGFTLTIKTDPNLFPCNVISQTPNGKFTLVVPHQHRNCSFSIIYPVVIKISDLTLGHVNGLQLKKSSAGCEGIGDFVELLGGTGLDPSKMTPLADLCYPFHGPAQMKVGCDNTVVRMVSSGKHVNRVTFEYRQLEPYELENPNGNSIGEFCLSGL

[7] = molecular target: T7, Endoribonuclease toxin MazF (Escherichia coli K-12, UniProt P0AE70); test: activation of MazEF endoribonuclease cleavage – biochemical, fluorescence, single-stranded RNA substrate, uHTS hits, dose response (AID 588481); assay type: functional
T7 sequence (P0AE70 whole entry): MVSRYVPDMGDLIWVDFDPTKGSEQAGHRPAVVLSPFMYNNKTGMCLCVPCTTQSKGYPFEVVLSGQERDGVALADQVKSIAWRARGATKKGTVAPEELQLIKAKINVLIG

[8] = molecular target: T7, Endoribonuclease toxin MazF; test: substrate-only fluorescence increase artefacts – biochemical, single-stranded RNase substrate, counter-screen for MazEF activator project, dose response (AID 588502); assay type: functional
[9] = molecular target: FAD-linked sulfhydryl oxidase ALR (Homo sapiens, UniProt P55789); test: ALR-catalysed DTT oxidation blockers – biochemical, H2O2 detection, luminescence, cherry-pick, dose response (AID 493248)
FAD-linked sulfhydryl oxidase ALR, sequence (P55789 whole entry): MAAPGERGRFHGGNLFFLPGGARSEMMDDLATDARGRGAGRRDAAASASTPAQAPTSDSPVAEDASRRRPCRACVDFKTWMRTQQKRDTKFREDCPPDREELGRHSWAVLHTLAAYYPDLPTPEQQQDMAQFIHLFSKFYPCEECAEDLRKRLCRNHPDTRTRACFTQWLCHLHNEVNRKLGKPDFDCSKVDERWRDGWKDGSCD

[10] = microbe, parasite or virus in culture; assay type: functional; conditions: Mycobacterium tuberculosis

Compound	AC50 [5]	EC50 [7]	EC50 [8]	also measured
Cc1cccc(-c2noc(C3CCCCC3)n2)c1				IC50 [1]: > 100 µM (inactive); IC50 [2]: 32 µM (active); IC50 [3]: 11.3 µM (active); IC50 [4]: 40.1 µM (active)
COc1cc(/C=C2\SC(=S)N(CC(=O)Nc3cccnc3)C2=O)cc(OC)c1OC	72.2 µM (active)			
NS(=O)(=O)c1ccc(NC(=O)COc2ccc(C(=O)c3ccc(F)cc3)cc2)cc1	> 100 µM (inactive)			
CCOc1ccc(N2C(=O)NC(=O)/C(=C\c3c[nH]c4ccccc34)C2=O)cc1		> 99 µM (inactive)	16.3 µM (active)	EC50 [6]: 15.4 µM (active)
Cc1ccc(S(=O)(=O)NCC(=O)Nc2ccc3c(c2)OCCO3)cc1	> 100 µM (inactive)			
COC(=O)Cn1c2ccc(OC)cc2c2nc3ccccc3nc21		> 99 µM (inactive)	> 99 µM (inactive)	
COc1ccc(-c2csc(Nc3ccc(S(=O)(=O)Nc4cc(C)on4)cc3)n2)cc1	67.4 µM (active)			AC50 [9]: 12.9 µM (active)
Nc1c2c(nc3sc4c(c13)CCCCC4)CCCC2				IC50 [1]: 32.8 µM (active); IC50 [2]: 18.4 µM (active); CC50 [10]: 18 µM (active); IC50 [3]: 10.3 µM (active); IC50 [4]: 33.7 µM (active)
CCCNC(=O)Cn1c(=O)/c(=C/c2ccc(-c3cccc([N+](=O)[O-])c3)o2)s/c1=C\C(=O)C(C)(C)C		> 99 µM (inactive)	> 99 µM (inactive)	
CCCCN1CC(=O)N2[C@H]3c4cc(C)ccc4OC[C@@H]3[C@H](c3ccccc3)[C@]2(C)C1=O		> 99 µM (inactive)	24 µM (inactive)	
Cc1ccc2c(Cl)c(C(=O)N/N=C/c3cccn3C)sc2c1		> 99 µM (inactive)	> 99 µM (inactive)	
